Results from patent US9458428B2, “Methods and compositions for the rapid production of retinal pigmented epithelial cells from pluripotent cells” (The Regents of the University of California, priority 2012, dated 2016).
Ends that are not written are not given here.

B1: Activin A: Recombinant Activin A, media additive (protein, UniProt P08476 311-426, looked up)
Inhibin beta A chain: GLECDGKVNICCKKQFFVSFKDIGWNDWIIAPSGYHANYCEGECPSHIAGTSGSSLSFHSTVINHYRMRGHSPFANLKSCCVPTKLRPMSMLYYDDGQNIIKKDIQNMIVEECGCS

How the values were obtained:
pluripotent stem cells [1] = test: qPCR gene expression, early eye field differentiation, day 4; assay type: cell-based, human; settings: for expression of early neural/early eye field marker Lhx2 / expression of early neural/early eye field marker Rax / expression of the pluripotency genes Oct4 and Nanog: day 4, added to IGF1, Noggin, Dkk1 and bFGF, compared with controls; for expression of the pluripotency genes Oct4 and Nanog: 10 mM nicotinamide or 5 mM 3-aminobenzamide
Procedure: (§1) Pluripotent stem cells were passaged directly onto Matrigel (BD Biosciences) in DMEM/F12 with 1×B27, 1×N2, and 1×NEAA (Invitrogen). From days 0 to 2, 50 ng/ml Noggin, 10 ng/ml Dkk1, and 10 ng/ml IGF1 (R&D Systems Inc., Minneapolis, Minn., http://www.rndsystems.com) and in some experiments 10 mM nicotinamide or 5 mM 3-aminobenzamide (Sigma-Aldrich) were added to the base medium. From days 2 to 4, 10 ng/ml Noggin, 10 ng/ml Dkk1, 10 ng/ml IGF1, and 5 ng/ml bFGF and in some experiments 10 mM nicotinamide or 5 mM 3-aminobenzamide were added to the base medium. From days 4 to 6, 10 ng/ml Dkk1 and 10 ng/ml IGF1 and in some experiments 100 ng/ml Activin A (R&D Systems) were added to the base medium. From days 6 to 14, 100 ng/ml Activin A, 10 μM SU5402 (EMD Millipore, Darmstadt, Germany, http://www.emdmillipore.com), and […] VIP (Sigma-Aldrich) were added to the base medium. Control experiments were also performed in base media alone (DMEM/F12, B27, N2, and NEAA).
(§2) Quantitative Real-Time Polymerase Chain Reaction Total RNA of RPE marker genes was isolated using primers based upon the mRNA sequences of such genes. QPCR methods were carried out with the RNeasy Plus Mini Kit (Qiagen, Hilden, Germany, http://www.qiagen.com). cDNA was synthesized from 1 μg of RNA using the iScript cDNA Synthesis Kit (Bio-Rad, Hercules, Calif., http://www.bio-rad.com). Primer pairs were designed to create a 75-200-base pair product (Beacon Design 4.0; Premier Biosoft International, Palo Alto, Calif., http://www.premierbiosoft.com). Quantitative real-time polymerase chain reaction (PCR) was carried out on a Bio-Rad MyIQ Single Color Real-Time PCR Detection System using the SYBR Green method, as described in Woo T H, Patel B K, Cinco M et al. Identification of Leptospira biflexa by real-time homogeneous detection of rapid cycle PCR product. J Microbiol Methods 1999; 35:23-30. Triplicate 20-μl reactions were run in a 96-well plate with half of the cDNA synthesis reaction used per plate. Primer specificity was confirmed by melting temperature analysis, gel electrophoresis, and direct sequencing (Iowa State DNA Facility, Ames, Iowa). The data were normalized to the geometric mean of the “housekeeping” genes: glyceraldehyde phosphate dehydrogenase (GAPDH), hydroxymethylbilane synthase (HMBS), and glucose phosphate isomerase (GPI), as described in Radeke M J, Peterson K E, Johnson L V et al. Disease susceptibility of the human macula: Differential gene transcription in the retinal pigmented epithelium/choroid. Exp Eye Res 2007; 85:366-380.

early eye field cells [2] = test: qPCR gene expression, RPE specification of early eye field cells, day 10; assay type: cell-based, human; settings: for gene expression of Mitf / expression of Rax: day 10; for gene expression of Mitf: Activin A added days 4-10, SU5402 or VIP days 6-10
Procedure: as §1, §2

dissociated RPE = test: Rescue of RPE after single-cell dissociation on day 14; assay type: cell-based, human; settings: 10 μM for the first 3 days after passage
Procedure: The cells were mechanically enriched by scraping away cells with non-RPE morphology. Subsequently, the remaining RPE were digested using TrypLE Express (Invitrogen) for ˜5 minutes at 37° C. The cells were passed through a 30-μm single-cell strainer and seeded onto Matrigel-coated tissue culture plastic, Transwell membranes (Corning Enterprises, Corning, N.Y., http://www.corning.com), or CC2-treated chambered slides. Enriched cells were cultured in DMEM-high glucose with 1% fetal bovine serum (FBS), GlutaMAX, and sodium pyruvate (Invitrogen) for 30 days, as described in Ahmado A, Carr A J, Vugler A A et al. Induction of differentiation by pyruvate and DMEM in the human retinal pigment epithelium cell line ARPE-19. Invest Ophthalmol Vis Sci 2011; 52:7148-7159.
Differentiated Cells Can Be Enriched on Day 14 to Homogenous Cultures of Functional RPE. To generate more homogenous populations of RPE, readily visible sheets on day 14 were mechanically isolated, dissociated into single cells, and replated in an RPE medium described in Buchholz D E, Hikita S T, Rowland T J et al. Derivation of functional retinal pigmented epithelium from induced pluripotent stem cells. STEM CELLS 2009; 27:2427-2434, on Matrigel-coated tissue culture plastic, chambered slides, or Transwell inserts. […]

PKC = settings: cited from earlier work
[3] = biological target: cAMP-dependent protein kinase; settings: cited from earlier work
[4] = biological target: myosin light-chain kinase; settings: cited from earlier work
pluripotent stem cells [5] = test: Cell morphology during early eye field differentiation; assay type: cell-based, human; settings: compared with control cells
Procedure: as §1

early eye field cells [6] = test: Pigmentation of differentiating cultures; assay type: cell-based, human; settings: cultures containing VIP, between days 10 and 14
Procedure: as §1

[7] = Activin A added days 4-10, SU5402 days 6-10

Molecule | expression of early neural/early eye field marker Lhx2 (pluripotent stem cells [1]) | expression of early neural/early eye field marker Rax (pluripotent stem cells [1]) | expression of the pluripotency genes Oct4 and Nanog (pluripotent stem cells [1]) | gene expression of Mitf (early eye field cells [2]) | expression of Rax (early eye field cells [2]; [7]) | further results
NC(=O)c1cccc(N)c1 [3-aminobenzamide] | significantly increased | significantly increased | reduced | – | – | ability to recapitulate the effects of nicotinamide (pluripotent stem cells [1]; day 4, overall): partially recapitulate the effects of nicotinamide
Cc1c[nH]c(/C=C2\C(=O)Nc3ccccc32)c1CCC(=O)O [SU5402] | – | – | – | little effect | little effect | expression of Rax (early eye field cells [2]; SU5402 in combination with Activin A): further decreased
C[C@@H](N)[C@H]1CC[C@H](C(=O)Nc2ccncc2)CC1 [Y-27632] | – | – | – | – | – | RPE survival and maturation after single-cell dissociation (dissociated RPE): […]; Ki (PKC): […]; Ki [3]: 25 µM; Ki [4]: > 250 µM
NC(=O)c1cccnc1 [nicotinamide] | increased | the increase in Rax was not significant | significantly decreased | – | – | Pax6(−5a) expression (pluripotent stem cells [1]; day 4, nicotinamide against control conditions): similar; cell morphology (pluripotent stem cells [5]): rapidly adopted a radial/rosette morphology
VIP: vasoactive intestinal peptide, a cyclic AMP upregulator (HSDAVFTDNYTRLRKQMAVKKYLNSILN; ends and bridges not checked; UniProt P01282 125-152, looked up) | – | – | – | significantly increased | – | expression of RPE marker gene PEDF (early eye field cells [2]; VIP added days 6-10): significantly increased; expression of RPE marker gene tyrosinase (early eye field cells [2]; VIP added days 6-10): significantly increased; pigmentation (early eye field cells [6]): increased
B1 | – | – | – | little effect | significantly decreased | –
